# According to US6946482B2, “Motilide compounds” (Kosan Biosciences, Inc., priority 2002, dated 2005):
# Read-outs that look alike come from different tables or passages of the source.
# Tests used:
# [1] = test system: Streptococcus pneumoniae ATCC 6301; experiment: In vitro susceptibility test (MIC); assay type: cell-based; conditions: ATCC6301
# Procedure: Antibacterial activity (Table 2) was determined by in vitro susceptibility tests against Streptococcus pneumoniae ATCC 6301, a macrolide-sensitive strain, using methods known in the microbiological art.
# [2] = test system: gut contraction; conditions: conscious dogs, dose 1 mg/kg; cited from earlier work
# [3] = biological target: T1, motilin receptor (Homo sapiens, UniProt O43193); experiment: Motilin receptor activation, calcium-influx assay; assay type: cell-based
# T1 construct: expressed in transfected cells
# T1 sequence (O43193 whole entry): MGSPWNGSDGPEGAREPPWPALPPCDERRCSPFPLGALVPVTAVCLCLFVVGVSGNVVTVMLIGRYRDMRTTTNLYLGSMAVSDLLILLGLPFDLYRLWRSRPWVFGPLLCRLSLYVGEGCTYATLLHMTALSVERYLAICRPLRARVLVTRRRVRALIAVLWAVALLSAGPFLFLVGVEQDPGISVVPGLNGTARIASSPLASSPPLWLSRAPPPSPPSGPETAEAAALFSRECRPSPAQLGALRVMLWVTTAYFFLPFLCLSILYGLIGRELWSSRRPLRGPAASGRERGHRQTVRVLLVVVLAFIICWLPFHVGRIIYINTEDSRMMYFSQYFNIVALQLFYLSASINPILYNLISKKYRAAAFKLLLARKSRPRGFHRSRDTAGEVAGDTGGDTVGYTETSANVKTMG
# Text: The compounds of formula (I) are agonists of the motilin receptor.
# [4] = biological target: T1, motilin receptor; conditions: cell-based and muscle strip contractility assays; cited from earlier work
# [5] = biological target: T1, motilin receptor; conditions: cited from earlier work
# [6] = biological target: T1, motilin receptor; experiment: Motilin receptor desensitization, cell-based assay
# Procedure: Compounds were tested for motilin receptor desensitization using the cell-based assay described in Carreras et al., US 2002/0192709 A1 (2002), “Methods for Evaluating Therapeutic Efficacy,” the disclosure of which is incorporated herein by reference.
# [7] = Streptococcus pneumoniae ATCC 6301, macrolide-sensitive strain, read-out: MIC
SMILES,"MIC [1, 7]",EC50 [3],also measured
"CCC1OC(=O)C(C)C(OC2CC(C)(OC)C(O)C(C)O2)C(C)C(OC2OC(C)CC(N(C)C)C2O)C(C)(O)CC(C)C(O)C(C)C(O)C1(C)O [A, (9S)-9-dihydroerythromycin A, reference compound]",0.3 µg/mL,2500 nM,"Activity relative to erythromycin, stimulation of gut contraction [2]: 65%"
CCC1OC(=O)C(C)C(OC2CC(C)(OC)C(O)C(C)O2)C(C)C(OC2OC(C)CC(N(C)C(C)C)C2O)C(C)(O)CC(C)C(O)C(C)C(O)C1(C)O (centres unmarked) [B],–,490 nM,–
"COC1(C)CC(OC2C(C)C(=O)OC(CCF)C(C)(O)C(O)C(C)C(O)C(C)CC(C)(O)C(OC3OC(C)CC(N(C)C)C3O)C2C)OC(C)C1O [C, (9S)-9-dihydro-15-fluoroerythromycin A]",–,5000 nM,–
CC[C@H]1OC(=O)[C@H](C)[C@@H](OC2C[C@@](C)(OC)C[C@H](C)O2)[C@H](C)[C@@H](OC2O[C@H](C)C[C@H](N(C)C(C)C)[C@H]2O)[C@@]2(C)CC(C)=C(O2)[C@H](C)C(=O)[C@]1(C)OC (some centres unmarked) [Compound 7],–,–,Motilin receptor desensitization (in words) [4]: show motilin receptor desensitization
"CCN(C)C1CC(C)OC(OC2C(C)C(OC3CC(C)(OC)C(O)C(C)O3)C(C)C(=O)OC(CCF)C(C)(O)C(O)C(C)C(O)C(C)CC2(C)O)C1O [D, N-desmethyl-N-ethyl(9S)-9-dihydro-15-fluoroerythromycin A]",–,2000 nM,–
"COC1(C)CC(OC2C(C)C(=O)OC(CCF)C(C)(O)C(O)C(C)C(O)C(C)CC(C)(O)C(OC3OC(C)CC(N(C)C(C)C)C3O)C2C)OC(C)C1O [E, N-desmethyl-N-isopropyl(9S)-9-dihydro-15-fluoroerythromycin A]",–,520 nM,–
"CCC1OC(=O)C(C)C(OC2CC(C)(OC)C(O)C(C)O2)C(C)C(OC2OC(C)CC(N(C)C)C2O)C(C)(O)CC(C)C(=O)C(C)C(O)C1(C)O (centres unmarked) [Erythromycin A, reference compound]",–,–,MIC ([1]; Streptococcus pneumoniae): 0.03 µg/mL; Motilin agonist activity (in words) [5]: motilin agonist activity
"CCCC1OC(=O)C(C)C(OC2CC(C)(OC)C(O)C(C)O2)C(C)C(OC2OC(C)CC(N(C)C)C2O)C(C)(O)CC(C)C(O)C(C)C(O)C1(C)O [F, (9S)-9-dihydro-15-methylerythromycin A]",1 µg/mL,8600 nM,Activity following exposure to compound (% of original activity retained) ([6]; 1 μM compound): 100%; Activity following exposure to compound (% of original activity retained) ([6]; 10 μM compound): 100%
"CCCC1OC(=O)C(C)C(OC2CC(C)(OC)C(O)C(C)O2)C(C)C(OC2OC(C)CC(N(C)C(C)C)C2O)C(C)(O)CC(C)C(O)C(C)C(O)C1(C)O [G, N-desmethyl-N-isopropyl-15-methyl-(9S)-9-dihydroerythromycin A]",> 100 µg/mL,1400 nM,Activity following exposure to compound (% of original activity retained) ([6]; 1 μM compound): 100%; Activity following exposure to compound (% of original activity retained) ([6]; 10 μM compound): 100%
"CCCC1OC(=O)C(C)C(OC2CC(C)(OC)C(O)C(C)O2)C(C)C(OC2OC(C)CC(N(C)C(C)CC)C2O)C(C)(O)CC(C)C(O)C(C)C(O)C1(C)O [H, N-desmethyl-N-(2-butyl) (9S)-9-dihydro-15-methylerythromycin A]",–,3300 nM,–
"CCC1OC(=O)C(C)C(OC2CC(C)(OC)C(O)C(C)O2)C(C)C(OC2OC(C)CC(N(C)C(C)C)C2O)C(C)(O)CC(C)C(O)C(C)CC1C [J, N-desmethyl-N-isopropyl-11-deoxy-(9S)-9-dihydroerythromycin B]",> 100 µg/mL,160 nM,Activity following exposure to compound (% of original activity retained) ([6]; 1 μM compound): 88%; Activity following exposure to compound (% of original activity retained) ([6]; 10 μM compound): 88%
